For experiment [1], the target named is human RORγt ligand binding domain (RORγt LBD) (Homo sapiens (Human), UniProt P51449). In words: RORγt ThermoFluor® assay (thermal shift binding). The following applies: read-out: ThermoFluor® Assay, Kd. Put shortly:
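His-tagged human RORγt LBD (0.065 mg/mL) with 60 μM 1,8-ANS in 100 mM Hepes pH 7.0, 10 mM NaCl, 2.5 mM GSH, 0.002% Tween-20 was heated at 1 °C/min.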

The next experiment has as its target full-length human RORγt (Homo sapiens (Human), UniProt P51449). In words: RORγt (full-length human) reporter assay, Conditions B or C. It is filed as cell-based. To be noted: for inhibition at 3 µM: at 3 μM compound concentration; for RORγt (FL) Reporter Assay B or C, % inhibition (value marked *): marked *: footnote not given. Put shortly:
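HEK293T cells transiently co-transfected with GAL4-DBD–full-length human RORγt (nt 142-1635, NM_001001523.1) plus GAL4-firefly and CMV-Renilla luciferase reporters; compounds added 4-6 h post-transfection for 16-20 h in 1.3% FBS, 0.1% DMSO. Firefly signal normalized to DMSO and saturating reference compound, then to Renilla; IC50 from concentration plots.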
In general terms: Reporter assays use an easily measured gene product as a stand-in for the process of interest.

Setting [2] is: read-out: RORγt (FL) Reporter Assay B or C, % inhibition.
Where [3] appears, read: read-out: RORγt (FL) Reporter Assay B or C, IC50.
The mark [4] stands for this setting: Conditions B or C, read-out: RORγt (FL) Reporter Assay B or C, IC50.

The text below walks through data of US10975068B2, “6-aminopyridin-3-yl thiazoles as modulators of RORγT” (Janssen Pharmaceutica NV, priority 2016, dated 2021).

Where two headings read alike, the source gives them in different places.

Sequence of full-length human RORγt (P51449 other isoform, or with tags, fused parts or gaps): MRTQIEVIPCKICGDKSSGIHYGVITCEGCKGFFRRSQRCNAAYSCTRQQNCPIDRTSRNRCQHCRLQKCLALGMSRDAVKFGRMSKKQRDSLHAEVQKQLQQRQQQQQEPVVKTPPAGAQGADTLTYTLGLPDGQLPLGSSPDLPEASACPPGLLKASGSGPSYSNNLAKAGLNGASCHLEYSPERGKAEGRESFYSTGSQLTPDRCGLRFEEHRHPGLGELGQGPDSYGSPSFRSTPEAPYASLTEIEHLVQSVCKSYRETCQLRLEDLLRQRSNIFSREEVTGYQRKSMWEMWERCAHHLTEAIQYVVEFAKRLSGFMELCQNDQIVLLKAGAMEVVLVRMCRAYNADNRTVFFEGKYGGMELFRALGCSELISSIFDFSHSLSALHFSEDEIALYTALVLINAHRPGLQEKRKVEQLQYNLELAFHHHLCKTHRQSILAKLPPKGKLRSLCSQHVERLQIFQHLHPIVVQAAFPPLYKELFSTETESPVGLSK
Sequence of human RORγt ligand binding domain (RORγt LBD) (P51449 other isoform, or with tags, fused parts or gaps): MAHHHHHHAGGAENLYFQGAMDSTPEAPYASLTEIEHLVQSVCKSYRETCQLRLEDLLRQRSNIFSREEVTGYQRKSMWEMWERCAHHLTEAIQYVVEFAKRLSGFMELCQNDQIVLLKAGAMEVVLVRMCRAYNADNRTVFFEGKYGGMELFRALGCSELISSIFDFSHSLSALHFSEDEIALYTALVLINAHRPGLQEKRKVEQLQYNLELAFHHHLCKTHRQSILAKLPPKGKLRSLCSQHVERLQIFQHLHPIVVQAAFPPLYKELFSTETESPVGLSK

In general, Kd refers to the concentration at which binding is half-saturated. As a reminder, the inhibition is the change of the read-out against control, counted positive when it falls. One may read the IC50 as the concentration needed to halve the response being measured. Take `CC[C@H](Nc1cc(C(F)F)c(-c2sc(C(=O)N[C@@H]3CCC[C@H]3O)nc2C(=O)N2CC(F)(F)C[C@@H]2C)cn1)C(F)(F)F` [Example 425, 4-[(2S)-4,4-Difluoro-2-methyl-pyrrolidine-1-carbonyl]-5-[4-(difluoromethyl)-6-[[(1S)-1-(trifluoromethyl)propyl]amino]-3-pyridyl]-N-[(1R,2R)-2-hydroxycyclopentyl]thiazole-2-carboxamide]: in experiment [1], the Kd is 0.18 nM. In addition, the inhibition at 3 µM on full-length human RORγt (setting [2]) is 103%. At full-length human RORγt (setting [3]), the half-maximal inhibitory concentration (IC50) was 0.05 µM.
On to `C[C@H]1CCCN1C(=O)c1nc(C(=O)NCC(C)(C)O)sc1-c1cnc(NCC2(C)CC2)cc1C(F)(F)F` [Example 278, N-(2-Hydroxy-2-methyl-propyl)-5-[6-[(1-methylcyclopropyl)methylamino]-4-(trifluoromethyl)-3-pyridyl]-4-[(2S)-2-methylpyrrolidine-1-carbonyl]thiazole-2-carboxamide], for which the dissociation constant (Kd) in experiment [1] was determined as 7.4 nM. In addition, the inhibition at 3 µM at full-length human RORγt (setting [2]) worked out at 100%. For the same molecule, the concentration for half-maximal inhibition (IC50) on full-length human RORγt (setting [3]) was 0.04 µM.
Regarding `CC[C@H](Nc1cc(C(F)F)c(-c2sc(C(=O)N[C@@H](C)[C@@H](C)O)nc2C(=O)N2CCC[C@@H]2C)cn1)C(F)(F)F` (relative stereo) [Example 219, 5-(4-(Difluoromethyl)-6-(((S)-1,1,1-trifluorobutan-2-yl)amino)pyridin-3-yl)-N-((2S*,3R*)-3-hydroxybutan-2-yl)-4-((S)-2-methylpyrrolidine-1-carbonyl)thiazole-2-carboxamide], the dissociation constant (Kd) in experiment [1] worked out at 4.1 nM. Also, at full-length human RORγt (Conditions B or C), the “RORγt (FL) Reporter Assay B or C, % inhibition (value marked *)” value (shortened to “RORγt … % inhibition (value marked *)”) is listed as 112* %. The IC50 on full-length human RORγt (setting [4]) came out at 0.02 µM.
`C[C@H]1CC(F)(F)CN1C(=O)c1nc(C(=O)NCC(C)(C)O)sc1-c1cnc(NCC(C)(C)C(F)(F)F)cc1C(F)(F)F` [Example 121, (S)-4-(4,4-Difluoro-2-methylpyrrolidine-1-carbonyl)-N-(2-hydroxy-2-methylpropyl)-5-(6-((3,3,3-trifluoro-2,2-dimethylpropyl)amino)-4-(trifluoromethyl)pyridin-3-yl)thiazole-2-carboxamide]: the equilibrium dissociation constant (Kd) in experiment [1] was found to be 0.65 nM. Moreover, the “RORγt … % inhibition (value marked *)” value on full-length human RORγt (Conditions B or C) was 104* %. Further, the 50% inhibitory concentration (IC50) at full-length human RORγt (setting [4]) worked out at 0.025 µM.
Take `C[C@H](CO)NC(=O)c1nc(C(=O)N2CCC[C@@H]2C)c(-c2cnc(N[C@@H](C)C(F)(F)F)cc2C(F)F)s1` [Example 284, 5-(4-(Difluoromethyl)-6-(((S)-1,1,1-trifluoropropan-2-yl)amino)pyridin-3-yl)-N—((R)-1-hydroxypropan-2-yl)-4-((S)-2-methylpyrrolidine-1-carbonyl)thiazole-2-carboxamide]: the dissociation constant (Kd) in experiment [1] is 8.1 nM. Also, the inhibition at 3 µM at full-length human RORγt (setting [2]) was found to be 111%. At full-length human RORγt (setting [3]), the IC50 worked out at 0.11 µM.
Take `CC[C@H](Nc1cc(C(F)F)c(-c2sc(C(=O)N[C@H]3CC[C@@H]3O)nc2C(=O)N2C3CCC2CC3)cn1)C(F)(F)F` (relative stereo) [Example 406, 4-((1s,4s)-7-Azabicyclo[2.2.1]heptane-7-carbonyl)-5-(4-(difluoromethyl)-6-(((S)-1,1,1-trifluorobutan-2-yl)amino)pyridin-3-yl)-N-((1S*,2S*)-2-hydroxycyclobutyl)thiazole-2-carboxamide]: the dissociation constant Kd in experiment [1] turned out to be 2.7 nM. For the same molecule, on full-length human RORγt (at 0.3 μM compound concentration, read-out: RORγt (FL) Reporter Assay B or C, % inhibition), the inhibition at 0.3 µM was 92%. The IC50 on full-length human RORγt (setting [3]) came to 0.081 µM.
For the molecule `C[C@H]1CCCN1C(=O)c1nc(C(=O)N2CC(O)C2)sc1-c1cnc(NC(C)(C)C)cc1C(F)(F)F` [Example 250, [5-[6-(tert-Butylamino)-4-(trifluoromethyl)-3-pyridyl]-2-(3-hydroxyazetidine-1-carbonyl)thiazol-4-yl]-[(2S)-2-methylpyrrolidin-1-yl]methanone], in experiment [1], the Kd was found to be 8.1 nM. For the same molecule, the inhibition at 3 µM on full-length human RORγt (setting [2]) is 106%. Moreover, at full-length human RORγt (setting [3]), the IC50 amounted to 0.028 µM.
As to `C[C@H]1CCCN1C(=O)c1nc(C(=O)N[C@H]2COC[C@@H]2O)sc1-c1cnc(NC(C)(C)C)cc1C(F)(F)F` [Example 348, 5-[6-(tert-Butylamino)-4-(trifluoromethyl)-3-pyridyl]-N-[(3S,4R)-4-hydroxytetrahydrofuran-3-yl]-4-[(2S)-2-methylpyrrolidine-1-carbonyl]thiazole-2-carboxamide], the equilibrium dissociation constant (Kd) in experiment [1] was 0.9 nM. Further, the inhibition at 3 µM at full-length human RORγt (setting [2]) was 105%. For the same molecule, the concentration for half-maximal inhibition (IC50) at full-length human RORγt (setting [3]) was determined as 0.0031 µM.
As to `C[C@H]1CCCN1C(=O)c1nc(C(=O)N[C@H]2C[C@H](O)C2)sc1-c1cnc(NC2CCCC2)cc1C(F)F` [Example 74, 5-(6-(Cyclopentylamino)-4-(difluoromethyl)pyridin-3-yl)-N-((1r,3s)-3-hydroxycyclobutyl)-4-((S)-2-methylpyrrolidine-1-carbonyl)thiazole-2-carboxamide], the dissociation constant Kd in experiment [1] turned out to be 73 nM. The “RORγt … % inhibition (value marked *)” value on full-length human RORγt (Conditions B or C) is 101* %. In addition, the half-inhibitory concentration (IC50) on full-length human RORγt (setting [4]) was found to be 0.032 µM.
On the same counts, the results for `C[C@H](Nc1cc(C(F)(F)F)c(-c2sc(C(=O)N[C@H](C)C(C)(C)O)nc2C(=O)N2CC(F)(F)C[C@@H]2C)cn1)C1CC1` [Example 203, 5-(6-(((S)-1-Cyclopropylethyl)amino)-4-(trifluoromethyl)pyridine-3-yl)-4-((S)-4,4-difluoro-2-methylpyrrolidine-1-carbonyl)-N—((R)-3-hydroxy-3-methylbutan-2-yl)thiazole-2-carboxamide] are 1.5 nM, 97* % and 0.042 µM.
Turning to `O=C(N[C@@H]1CC[C@@H](O)C1)c1nc(C(=O)N2C3CCC2CC3)c(-c2cnc(N[C@@H](C3CC3)C(F)(F)F)cc2C(F)F)s1` [Example 437, 4-((1s,4s)-7-Azabicyclo[2.2.1]heptane-7-carbonyl)-5-[6-[[(1S)-1-cyclopropyl-2,2,2-trifluoro-ethyl]amino]-4-(difluoromethyl)-3-pyridyl]-N-[(1R,3R)-3-hydroxycyclopentyl]thiazole-2-carboxamide], the Kd in experiment [1] was 0.44 nM. This molecule displayed an IC50 against full-length human RORγt (RORγt (FL) Reporter Assay B or C, IC50) of 0.016 µM. For the same molecule, on full-length human RORγt (setting [2]), the inhibition at 3 µM stood at 90%.
With `C[C@H]1CCCN1C(=O)c1nc(C(=O)N[C@H](C)C(C)(C)O)sc1-c1cnc(NCC(C)(C)C)cc1C(F)(F)F` [Example 334, 5-[6-(2,2-Dimethylpropylamino)-4-(trifluoromethyl)-3-pyridyl]-N-[(1R)-2-hydroxy-1,2-dimethyl-propyl]-4-[(2S)-2-methylpyrrolidine-1-carbonyl]thiazole-2-carboxamide], the equilibrium dissociation constant (Kd) in experiment [1] was 1.4 nM. In addition, on full-length human RORγt (setting [2]), the inhibition at 3 µM worked out at 106%. For the same molecule, on full-length human RORγt (setting [3]), the half-maximal inhibitory concentration (IC50) turned out to be 0.007 µM.
In the case of `CC(C)(O)CNC(=O)c1nc(C(=O)N2C3CCC2CC3)c(-c2cnc(NC(C3CC3)C3CC3)cc2C(F)F)s1` [Example 178, 4-((1s,4s)-7-Azabicyclo[2.2.1]heptane-7-carbonyl)-5-(6-((dicyclopropylmethyl)amino)-4-(difluoromethyl)pyridine-3-yl)-N-(2-hydroxy-2-methylpropyl)thiazole-2-carboxamide], the Kd in experiment [1] was 2 nM. In addition, the “RORγt … % inhibition (value marked *)” value at full-length human RORγt (Conditions B or C) is 102* %. In addition, at full-length human RORγt (setting [4]), the 50% inhibitory concentration (IC50) worked out at 0.0055 µM.
As for `C[C@H](CO)NC(=O)c1nc(C(=O)N2CCC[C@@H]2C)c(-c2cnc(NC(C)(C)C)cc2C(F)F)s1` [Example 148, 5-(6-(tert-Butylamino)-4-(difluoromethyl)-3-pyridyl)-N-((1R)-2-hydroxy-1-methyl-ethyl)-4-((2S)-2-methylpyrrolidine-1-carbonyl)thiazole-2-carboxamide], the dissociation constant Kd in experiment [1] came out at 6.4 nM. The “RORγt … % inhibition (value marked *)” value on full-length human RORγt (Conditions B or C) is 95* %. At full-length human RORγt (setting [4]), the 50% inhibitory concentration (IC50) worked out at 0.025 µM.
For `C[C@H]1CC(F)(F)CN1C(=O)c1nc(C(=O)N[C@@H]2COC[C@@H]2O)sc1-c1cnc(NC2(C)CCC2)cc1C(F)(F)F` (relative stereo) [Example 183, 4-((S)-4,4-Difluoro-2-methylpyrrolidine-1-carbonyl)-N-((3R*,4R*)-4-hydroxytetrahydrofuran-3-yl)-5-(6-((1-methylcyclobutyl)amino)-4-(trifluoromethyl)pyridine-3-yl)thiazole-2-carboxamide], the Kd in experiment [1] was found to be 0.22 nM. Also, on full-length human RORγt (Conditions B or C), the “RORγt … % inhibition (value marked *)” value is listed as 76* %. For the same molecule, at full-length human RORγt (setting [4]), the IC50 is 0.034 µM.
As for `CC[C@H](Nc1cc(C(F)(F)F)c(-c2sc(C(=O)N[C@@H]3COC[C@H]3O)nc2C(=O)N2C3CCC2CC3)cn1)C(F)(F)F` [Example 155], in experiment [1], the Kd was determined as 1.1 nM. For the same molecule, the “RORγt … % inhibition (value marked *)” value at full-length human RORγt (Conditions B or C) is 103* %. The half-maximal inhibitory concentration (IC50) on full-length human RORγt (RORγt (FL) Reporter Assay B or C, IC50 (μM), Conditions B or C) came to 0.0058 µM.
Turning to `CC[C@H](Nc1cc(C(F)F)c(-c2sc(C(=O)N[C@H]3CC[C@H](O)C3)nc2C(=O)N2CC(F)(F)C[C@@H]2C)cn1)C(F)(F)F` [Example 416, 4-[(2S)-4,4-Difluoro-2-methyl-pyrrolidine-1-carbonyl]-5-[4-(difluoromethyl)-6-[[(1S)-1-(trifluoromethyl)propyl]amino]-3-pyridyl]-N-[(1S,3S)-3-hydroxycyclopentyl]thiazole-2-carboxamide], the Kd in experiment [1] was found to be 0.43 nM. Also, the inhibition at 1 µM on full-length human RORγt (at 1 μM compound concentration, read-out: RORγt (FL) Reporter Assay B or C, % inhibition) is 89%. Besides, the 50% inhibitory concentration (IC50) at full-length human RORγt (setting [3]) was 0.037 µM.
